Values of other authors as cited in patent US20250255825A1, “POLYMER-LIPID NANOCOMPLEX FOR ENHANCED AQUEOUS SOLUBILISATION AND ABSORPTION OF HYDROPHOBIC ACTIVE COMPOUNDS” (priority 2019, published 2025).
Where two headings read alike, the source gives them in different places.

Columns and labels:
[1] = system: malaria parasitaemia in the blood; details: reported value for un-formulated LUM
[2] = not given; remark: listed apart in the source
[3] = partition coefficient octanol/water
[4] = system: plasma proteins

half-life (T½) ([2]; in vivo) [h]	highest concentration (Cmax) in the blood ([2]; orally administered) [ng/mL]	time to reach the highest concentration (Tmax) ([2]; orally administered)	Log P [3]	protein bound [4] [%]	Compound	bioavailability (inhalation)	bioavailability (orally)	effective dose (ED90) to clear 90% of parasitaemia in the blood [1] [mg/kg]
–	–	–	–	–	C=C(C)[C@@H]1CCC(C)=C[C@H]1c1c(O)cc(CCCCC)cc1O [Cannabidiol]	11-45%	13-19%	–
96 to 120	7000	about 6 hours	9	99.7	CCCCN(CCCC)CC(O)c1cc(Cl)cc2c1-c1ccc(Cl)cc1/C2=C/c1ccc(Cl)cc1 (racemic) [Lumefantrine]	–	–	12.01
